The IC50 is the midpoint of a concentration-inhibition curve. A lower IC50 goes with greater potency. In general, inhibition refers to how much of the control response was suppressed. Low values mean a weak effect, high ones a strong effect.

Here are results for four compounds from ChEMBL document CHEMBL1130943, “Novel inhibitors of alpha 4 beta 1 integrin receptor interactions through library synthesis and screening” (Bioorg Med Chem Lett, 1998).

Common to all, as to format: protein-complex assay
In test [1] the target is T1, Integrin alpha-4/beta-1 (Homo sapiens, UniProt P05556+P13612). As to the kind of experiment: Inhibition of alpha4-beta1 integrin connecting segment 1 (CS1) splice variant binding interaction.
Target sequence in this assay (P05556 21-798 limits assumed, change not shown): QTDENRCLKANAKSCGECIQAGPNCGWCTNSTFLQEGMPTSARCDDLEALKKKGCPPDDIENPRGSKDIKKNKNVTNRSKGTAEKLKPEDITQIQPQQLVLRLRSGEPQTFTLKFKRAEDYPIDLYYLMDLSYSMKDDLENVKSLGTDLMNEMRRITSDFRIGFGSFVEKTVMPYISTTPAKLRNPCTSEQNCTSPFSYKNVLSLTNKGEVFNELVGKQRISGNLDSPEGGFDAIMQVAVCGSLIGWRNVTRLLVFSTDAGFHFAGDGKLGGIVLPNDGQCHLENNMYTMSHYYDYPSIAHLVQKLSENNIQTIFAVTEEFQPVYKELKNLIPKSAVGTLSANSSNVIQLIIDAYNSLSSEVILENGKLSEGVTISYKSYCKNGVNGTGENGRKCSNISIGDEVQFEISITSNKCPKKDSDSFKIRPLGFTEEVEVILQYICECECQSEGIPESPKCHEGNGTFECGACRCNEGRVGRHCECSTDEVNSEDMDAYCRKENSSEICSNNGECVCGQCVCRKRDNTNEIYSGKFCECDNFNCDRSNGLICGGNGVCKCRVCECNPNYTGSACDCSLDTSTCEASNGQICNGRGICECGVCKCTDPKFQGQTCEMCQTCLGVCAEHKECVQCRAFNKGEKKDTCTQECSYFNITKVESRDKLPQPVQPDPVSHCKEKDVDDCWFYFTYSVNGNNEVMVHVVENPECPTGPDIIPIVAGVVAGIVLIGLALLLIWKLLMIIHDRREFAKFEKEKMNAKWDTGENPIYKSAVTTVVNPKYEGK
Target sequence in this assay (P13612 34-1032 limits assumed, change not shown): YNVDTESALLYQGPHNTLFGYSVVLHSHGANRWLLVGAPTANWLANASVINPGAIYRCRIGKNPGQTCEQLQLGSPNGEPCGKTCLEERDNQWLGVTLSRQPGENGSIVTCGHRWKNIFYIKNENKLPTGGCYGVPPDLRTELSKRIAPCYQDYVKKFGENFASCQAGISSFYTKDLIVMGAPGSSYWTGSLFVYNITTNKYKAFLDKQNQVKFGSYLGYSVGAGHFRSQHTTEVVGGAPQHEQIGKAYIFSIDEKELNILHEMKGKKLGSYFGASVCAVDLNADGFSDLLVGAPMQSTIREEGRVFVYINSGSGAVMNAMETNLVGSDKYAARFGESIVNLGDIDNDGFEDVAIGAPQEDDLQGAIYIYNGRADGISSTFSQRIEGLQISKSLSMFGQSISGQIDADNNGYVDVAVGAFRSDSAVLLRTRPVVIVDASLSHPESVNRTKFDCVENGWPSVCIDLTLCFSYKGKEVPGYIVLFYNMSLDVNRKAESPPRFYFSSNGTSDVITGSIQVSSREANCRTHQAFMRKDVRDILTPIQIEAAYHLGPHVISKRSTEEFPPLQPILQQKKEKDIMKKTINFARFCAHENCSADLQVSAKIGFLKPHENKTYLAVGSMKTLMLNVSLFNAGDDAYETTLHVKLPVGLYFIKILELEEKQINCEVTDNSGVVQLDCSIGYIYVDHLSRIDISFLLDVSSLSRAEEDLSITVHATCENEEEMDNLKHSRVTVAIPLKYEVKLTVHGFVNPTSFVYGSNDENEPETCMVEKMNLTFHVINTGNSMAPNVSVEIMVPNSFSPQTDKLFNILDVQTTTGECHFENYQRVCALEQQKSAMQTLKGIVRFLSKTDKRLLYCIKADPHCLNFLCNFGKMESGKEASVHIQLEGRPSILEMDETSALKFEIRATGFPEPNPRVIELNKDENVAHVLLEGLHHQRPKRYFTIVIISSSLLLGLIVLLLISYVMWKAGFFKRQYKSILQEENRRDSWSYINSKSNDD
The target in test [2] is T1, Integrin alpha-4/beta-1. Kind of test: Inhibition of alpha4-beta1 integrin connecting segment 1 (CS1) splice variant binding interaction at 100 uM.
For test [3], the target named is T1, Integrin alpha-4/beta-1. As to the kind of experiment: Inhibition of alpha4-beta1 integrin connecting segment 1 (CS1) splice variant binding interaction 100 uM.

As to `O=C(O)CCN1CCS[C@H](CC(=O)O)C(=O)N[C@@H](Cc2ccc(O)cc2)C1=O`, the half-maximal inhibitory concentration (IC50) at Integrin alpha-4/beta-1 [1] amounted to 5 µM. For the same compound, at Integrin alpha-4/beta-1 [2], the inhibition was 100%.
For `CC(C)CCN1CCS[C@@H](CC(=O)O)C(=O)N[C@@H](Cc2ccccc2)C1=O` the same measures were above 100 µM and 0%.
In turn, `CCCCN1CCS[C@@H](CC(=O)O)C(=O)N[C@@H](Cc2ccccc2)C1=O` showed an IC50 on Integrin alpha-4/beta-1 [1] above 100 µM. In addition, at Integrin alpha-4/beta-1 [2], the inhibition was 41%.
The compound `O=C(O)CCN1CCS[C@@H](CC(=O)O)C(=O)N[C@@H](Cc2ccc(O)cc2)C1=O` displayed an inhibition on Integrin alpha-4/beta-1 [3] of 100%. At Integrin alpha-4/beta-1 [1], the IC50 worked out at 8 µM.
